Assay results from patent EP1007530B1, “6-O-SUBSTITUTED ERYTHROMYCIN COMPOUNDS AND METHOD FOR MAKING SAME” (ABBOTT LABORATORIES, priority 1996, dated 1997).
Values after ≈ are worked out from the molar mass of the structure shown.

Columns and labels:
Assay in all cases: In vitro assay of antibacterial activity (agar dilution MIC)
Type in all cases: cell-based
[1] = tested on: Staphylococcus aureus A5177; conditions: BHI agar, 35-37 °C, 20 to 24 hours, unit assumed
Protocol: (§1) Representative compounds of the present invention were assayed in vitro for antibacterial activity as follows: Twelve petri dishes containing successive aqueous dilutions of the test compound mixed with 10 mL of sterilized Brain Heart Infusion (BHI) agar (Difco 0418-01-5) were prepared. Each plate was inoculated with 1:100 (or 1:10 for slow-growing strains, such as Micrococcus and Streptococcus) dilutions of up to 32 different microorganisms, using a Steers replicator block. The inoculated plates were incubated at 35-37 °C for 20 to 24 hours, In addition, a control plate, using BHI agar containing no test compound, was prepared and incubated at the beginning and end of each test.
(§2) An additional plate containing a compound having known susceptibility patterns for the organisms being tested and belonging to the same antibiotic class as the test compound was also prepared and incubated as a further control, as well as to provide test-to-test comparability.
(§3) After incubation, each plate was visually inspected. The minimum inhibitory concentration (MIC) was defined as the lowest concentration of drug yielding no growth, a slight haze, or sparsely isolated colonies on the inoculum spot as compared to the growth control. […]

[2] = tested on: Staphylococcus aureus 1775; conditions: BHI agar, 35-37 °C, 20 to 24 hours, unit assumed
Protocol: as §1
as §2, with “comparability. Erythromycin A was used for this purpose.” for “comparability.”
as §3

Escherichia coli H560 = conditions: BHI agar, 35-37 °C, 20 to 24 hours, unit assumed
Protocol: as §1
as §2, with “comparability. Erythromycin A was used for this purpose.” for “comparability.”
as §3

[3] = tested on: Streptococcus bovis A-5169; conditions: BHI agar, 35-37 °C, 20 to 24 hours, unit assumed
Protocol: as §1
as §2, with “comparability. Erythromycin A was used for this purpose.” for “comparability.”
as §3

Candida albicans CCH 442 = conditions: BHI agar, 35-37 °C, 20 to 24 hours, unit assumed
Protocol: as §1
as §2, with “comparability. Erythromycin A was used for this purpose.” for “comparability.”
as §3

[4] = tested on: Staphylococcus aureus CMX 553; conditions: BHI agar, 35-37 °C, 20 to 24 hours, unit assumed
Protocol: as §1
as §2, with “comparability. Erythromycin A was used for this purpose.” for “comparability.”
as §3

[5] = tested on: Staphylococcus aureus ATCC 6538P; conditions: BHI agar, 35-37 °C, 20 to 24 hours, unit assumed
Protocol: as §1
as §2, with “comparability. Erythromycin A was used for this purpose.” for “comparability.”
as §3

[6] = tested on: Pseudomonas aeruginosa K799/61; conditions: BHI agar, 35-37 °C, 20 to 24 hours, unit assumed
Protocol: as §1
as §2, with “comparability. Erythromycin A was used for this purpose.” for “comparability.”
as §3

[7] = tested on: Staphylococcus aureus A-5278; conditions: BHI agar, 35-37 °C, 20 to 24 hours, unit assumed
Protocol: as §1
as §2, with “comparability. Erythromycin A was used for this purpose.” for “comparability.”
as §3

Escherichia coli JUHL = conditions: BHI agar, 35-37 °C, 20 to 24 hours, in µg/mL (unit assumed)
Protocol: as §1
as §2, with “comparability. Erythromycin A was used for this purpose.” for “comparability.”
as §3

[8] = tested on: Streptococcus pyogenes 930; conditions: BHI agar, 35-37 °C, 20 to 24 hours, unit assumed
Protocol: as §1
as §2, with “comparability. Erythromycin A was used for this purpose.” for “comparability.”
as §3

[9] = tested on: Staphylococcus aureus NCTC10649M; conditions: BHI agar, 35-37 °C, 20 to 24 hours, unit assumed
Protocol: as §1
as §2, with “comparability. Erythromycin A was used for this purpose.” for “comparability.”
as §3

[10] = tested on: Pseudomonas aeruginosa DPHD-5263; conditions: BHI agar, 35-37 °C, 20 to 24 hours, in µg/mL (unit assumed)
Protocol: as §1
as §2, with “comparability. Erythromycin A was used for this purpose.” for “comparability.”
as §3

[11] = tested on: Micrococcus luteus ATCC 9341; conditions: BHI agar, 35-37 °C, 20 to 24 hours, unit assumed
Protocol: as §1
as §2, with “comparability. Erythromycin A was used for this purpose.” for “comparability.”
as §3

[12] = tested on: Staphylococcus aureus CMX 642A; conditions: BHI agar, 35-37 °C, 20 to 24 hours, unit assumed
Protocol: as §1
as §2, with “comparability. Erythromycin A was used for this purpose.” for “comparability.”
as §3

[13] = tested on: Enterococcus faecium ATCC 8043; conditions: BHI agar, 35-37 °C, 20 to 24 hours, unit assumed
Protocol: as §1
as §2, with “comparability. Erythromycin A was used for this purpose.” for “comparability.”
as §3

[14] = tested on: Micrococcus luteus ATCC 4698; conditions: BHI agar, 35-37 °C, 20 to 24 hours, unit assumed
Protocol: as §1
as §2, with “comparability. Erythromycin A was used for this purpose.” for “comparability.”
as §3

[15] = tested on: Streptococcus agalactiae CMX 508; conditions: BHI agar, 35-37 °C, 20 to 24 hours, unit assumed
Protocol: as §1
as §2, with “comparability. Erythromycin A was used for this purpose.” for “comparability.”
as §3

Escherichia coli SS = conditions: BHI agar, 35-37 °C, 20 to 24 hours, unit assumed
Protocol: as §1
as §2, with “comparability. Erythromycin A was used for this purpose.” for “comparability.”
as §3

Escherichia coli DC-2 = conditions: BHI agar, 35-37 °C, 20 to 24 hours, unit assumed
Protocol: as §1
as §2, with “comparability. Erythromycin A was used for this purpose.” for “comparability.”
as §3

Escherichia coli KNK 437 = conditions: BHI agar, 35-37 °C, 20 to 24 hours, unit assumed
Protocol: as §1
as §2, with “comparability. Erythromycin A was used for this purpose.” for “comparability.”
as §3

[16] = tested on: Streptococcus pyogenes PIU 2548; conditions: BHI agar, 35-37 °C, 20 to 24 hours, unit assumed
Protocol: as §1
as §2, with “comparability. Erythromycin A was used for this purpose.” for “comparability.”
as §3

Pseudomonas capacia 2961 = conditions: BHI agar, 35-37 °C, 20 to 24 hours, in µg/mL (unit assumed)
Protocol: as §1
as §2, with “comparability. Erythromycin A was used for this purpose.” for “comparability.”
as §3

[17] = tested on: Staphylococcus epidermidis 3519; conditions: BHI agar, 35-37 °C, 20 to 24 hours, unit assumed
Protocol: as §1
as §2, with “comparability. Erythromycin A was used for this purpose.” for “comparability.”
as §3

[18] = tested on: Pseudomonas aeruginosa 5007; conditions: BHI agar, 35-37 °C, 20 to 24 hours, unit assumed
Protocol: as §1
as §2, with “comparability. Erythromycin A was used for this purpose.” for “comparability.”
as §3

[19] = tested on: Enterobacter aerogenes ATCC 13048; conditions: BHI agar, 35-37 °C, 20 to 24 hours, unit assumed
Protocol: as §1
as §2, with “comparability. Erythromycin A was used for this purpose.” for “comparability.”
as §3

[20] = tested on: Pseudomonas aeruginosa DPHD-2862; conditions: BHI agar, 35-37 °C, 20 to 24 hours, unit assumed
Protocol: as §1
as §2, with “comparability. Erythromycin A was used for this purpose.” for “comparability.”
as §3

[21] = tested on: Pseudomonas aeruginosa K799/WT; conditions: BHI agar, 35-37 °C, 20 to 24 hours, unit assumed
Protocol: as §1
as §2, with “comparability. Erythromycin A was used for this purpose.” for “comparability.”
as §3

[22] = tested on: Pseudomonas aeruginosa BMH10; conditions: BHI agar, 35-37 °C, 20 to 24 hours, in µg/mL (unit assumed)
Protocol: as §1
as §2, with “comparability. Erythromycin A was used for this purpose.” for “comparability.”
as §3

[23] = tested on: Providencia struartii CMX 640; conditions: BHI agar, 35-37 °C, 20 to 24 hours, unit assumed
Protocol: as §1
as §2, with “comparability. Erythromycin A was used for this purpose.” for “comparability.”
as §3

[24] = tested on: Klebsiella pneumoniae ATCC 8045; conditions: BHI agar, 35-37 °C, 20 to 24 hours, unit assumed
Protocol: as §1
as §2, with “comparability. Erythromycin A was used for this purpose.” for “comparability.”
as §3

[25] = tested on: Actinetobacter calcoaceticus CMX 669; conditions: BHI agar, 35-37 °C, 20 to 24 hours, unit assumed
Protocol: as §1, §2, §3

[26] = tested on: Streptococcus pyogenes EES61; conditions: BHI agar, 35-37 °C, 20 to 24 hours, unit assumed
Protocol: as §1
as §2, with “comparability. Erythromycin A was used for this purpose.” for “comparability.”
as §3

[27] = tested on: Mycobacterium smegmatis ATCC 114; conditions: BHI agar, 35-37 °C, 20 to 24 hours, unit assumed
Protocol: as §1
as §2, with “comparability. Erythromycin A was used for this purpose.” for “comparability.”
as §3

SMILES | MIC [2] [µg/mL] | MIC (Escherichia coli H560) [µg/mL] | MIC [3] [µg/mL] | MIC (Candida albicans CCH 442) [µg/mL] | MIC [5] [µg/mL] | MIC [6] [µg/mL] | MIC [7] [µg/mL] | MIC (Escherichia coli JUHL) | MIC [8] [µg/mL] | MIC [9] [µg/mL] | MIC [10] | MIC [11] [µg/mL] | MIC [12] [µg/mL] | MIC [13] [µg/mL] | MIC [15] [µg/mL] | MIC (Escherichia coli KNK 437) [µg/mL] | MIC [16] [µg/mL] | MIC (Pseudomonas capacia 2961) | MIC [17] [µg/mL] | MIC [18] [µg/mL] | other results
CC[C@H]1OC(=O)[C@H](C)[C@@H](O[C@H]2C[C@@](C)(OC)[C@@H](O)[C@H](C)O2)[C@H](C)[C@@H](O[C@@H]2O[C@H](C)C[C@H](N(C)C)[C@H]2O)[C@](C)(O)C[C@@H](C)C(=O)[C@H](C)[C@@H](O)[C@]1(C)O [Ery. A, Erythromycin A, reference compound] | > 100 | 50 (≈ 68.1 µM) | 0.02 (≈ 0.0273 µM) | > 100 | 0.2 (≈ 0.273 µM) | 1.56 (≈ 2.13 µM) | > 100 | > 100 | > 100 | 0.39 (≈ 0.531 µM) | >100 | 0.05 (≈ 0.0681 µM) | 0.39 (≈ 0.531 µM) | 0.05 (≈ 0.0681 µM) | 0.05 (≈ 0.0681 µM) | 100 (≈ 136 µM) | 3.1 (≈ 4.22 µM) | > 100 | 0.39 (≈ 0.531 µM) | > 100 | MIC [1]: 3.1 µg/mL (≈ 4.22 µM); MIC [4]: 0.39 µg/mL (≈ 0.531 µM); MIC [14]: 0.2 µg/mL (≈ 0.273 µM); MIC (Escherichia coli SS): 0.78 µg/mL (≈ 1.06 µM); MIC (Escherichia coli DC-2): > 100 µg/mL; MIC [19]: > 100 µg/mL; MIC [20]: > 100 µg/mL; MIC [21]: 100 µg/mL (≈ 136 µM); MIC [22]: > 100; MIC [23]: > 100 µg/mL; MIC [24]: > 100 µg/mL
CCCO[C@]1(C)C[C@@H](C)C(=O)[C@H](C)[C@@H](O)[C@](C)(O)[C@@H](CC)OC(=O)[C@H](C)[C@@H](O[C@H]2C[C@@](C)(OC)[C@@H](O)[C@H](C)O2)[C@H](C)[C@H]1O[C@@H]1O[C@H](C)C[C@H](N(C)C)[C@H]1O [Example 2, Compound of Formula (X): X is =O, R is propyl] | > 100 | > 100 | 0.05 | 0.1 | 3.1 | > 100 | > 100 | >100 | > 100 | 6.2 | >100 | 0.2 | 12.5 | 3.1 | 0.2 | > 100 | 6.2 | 50 | 1.56 | > 100 | MIC [25]: > 100 µg/mL; MIC [1]: 25 µg/mL; MIC [4]: 3.1 µg/mL; MIC [14]: 3.1 µg/mL; MIC (Escherichia coli SS): 1.56 µg/mL; MIC (Escherichia coli DC-2): > 100 µg/mL; MIC [19]: > 100 µg/mL; MIC [20]: > 100 µg/mL; MIC [21]: 6.2 µg/mL; MIC [22]: >100; MIC [23]: > 100 µg/mL; MIC [24]: > 100 µg/mL; MIC [26]: 0.05 µg/mL
CC[C@H]1OC(=O)[C@H](C)[C@@H](O[C@H]2C[C@@](C)(OC)[C@@H](O)[C@H](C)O2)[C@H](C)[C@@H](O[C@@H]2O[C@H](C)C[C@H](N(C)C)[C@H]2O)[C@](C)(OCC(C)=O)C[C@@H](C)C(=O)[C@H](C)[C@@H](O)[C@]1(C)O [Example 9, Compound of Formula (X); X is =O. R is 2-oxopropyl] | > 100 | > 100 | 3.1 | > 100 | 3.1 | 12.5 | > 100 | > 100 | > 100 | 3.1 | > 100 | 3.1 | 3.1 | 3.1 | 3.1 | > 100 | 12.5 | > 100 | 3.1 | > 100 | MIC [25]: 50 µg/mL; MIC [27]: 3.1 µg/mL; MIC [19]: > 100 µg/mL; MIC [20]: > 100 µg/mL; MIC [21]: > 100 µg/mL; MIC [22]: > 100; MIC [23]: > 100 µg/mL; MIC [24]: > 100 µg/mL
